Measurements: patent US20050143927A1, “Method for estimating or predicting the anti-tumor activity of a compound and for estimating or predicting the tumor growth in mammals” (Pharmacia Italia S.p.A., priority 2002, published 2005)

Test: Two-compartment PK model fitted to plasma concentration of Drug-A (Experiment-A)
Settings: for Vd: male, athymic nude, mouse, iv; for Vd / A (PK macro-constant) / Alpha (PK macro-constant) / B (PK macro-constant) / Beta (PK macro-constant): plasma
[1] = dose 20 mg/kg iv-bolus q4dx3, mean of four mice
[2] = dose 30 mg/kg iv-bolus q4dx3, mean of four mice
[3] = dose 40 mg/kg iv-bolus q4dx3, mean of four mice
[4] = mouse 0, 20 mg/kg iv-bolus q4dx3
[5] = mouse 26, 40 mg/kg iv-bolus q4dx3
[6] = mouse 28, 30 mg/kg iv-bolus q4dx3
[7] = mouse 31, 20 mg/kg iv-bolus q4dx3
[8] = mouse 55, 20 mg/kg iv-bolus q4dx3
[9] = mouse 59, 30 mg/kg iv-bolus q4dx3
[10] = mouse 64, 30 mg/kg iv-bolus q4dx3
[11] = mouse 69, 20 mg/kg iv-bolus q4dx3
[12] = mouse 78, 40 mg/kg iv-bolus q4dx3
[13] = mouse 80, 40 mg/kg iv-bolus q4dx3
[14] = mouse 81, 40 mg/kg iv-bolus q4dx3
[15] = mouse 88, 30 mg/kg iv-bolus q4dx3

## CC(=O)O[C@H]1C(=O)[C@@]2(C)[C@H]([C@H](OC(=O)c3ccccc3)[C@]3(O)C[C@H](OC(=O)[C@H](O)[C@@H](NC(=O)c4ccccc4)c4ccccc4)C(C)=C1C3(C)C)[C@]1(OC(C)=O)CO[C@@H]1C[C@@H]2O [Drug-A, paclitaxel]
[1]
  A (PK macro-constant), mean: 34294.5621
  B (PK macro-constant), mean: 3467.5180
  K10, mean: 41.0979 day⁻¹
  K12, mean: 16.4430 day⁻¹
  K21, mean: 12.4026 day⁻¹
  α (PK macro-constant), mean: 62.0545
  β (PK macro-constant), mean: 7.8890
[2]
  A (PK macro-constant), mean: 56632.6519
  B (PK macro-constant), mean: 759.8587
  K10, mean: 20.8063 day⁻¹
  K12, mean: 2.2085 day⁻¹
  K21, mean: 3.4809 day⁻¹
  α (PK macro-constant), mean: 23.2801
  β (PK macro-constant), mean: 3.2157
[3]
  A (PK macro-constant), mean: 62064.8954
  B (PK macro-constant), mean: 7999.4363
  K10, mean: 20.0530 day⁻¹
  K12, mean: 9.5544 day⁻¹
  K21, mean: 6.2425 day⁻¹
  α (PK macro-constant), mean: 32.9706
  β (PK macro-constant), mean: 2.8793
20 mg/kg, Vd (apparent volume of distribution of the central compartment), mouse 0, 20 mg/kg iv-bolus q4dx3
  Vd: 9.51 L/kg
20 mg/kg, Vd (apparent volume of distribution of the central compartment), mouse 31, 20 mg/kg iv-bolus q4dx3
  Vd: 1.34 L/kg
20 mg/kg, Vd (apparent volume of distribution of the central compartment), mouse 55, 20 mg/kg iv-bolus q4dx3
  Vd: 0.719 L/kg
20 mg/kg, Vd (apparent volume of distribution of the central compartment), mouse 69, 20 mg/kg iv-bolus q4dx3
  Vd: 0.188 L/kg
20 mg/kg, Vd, mean, dose 20 mg/kg iv-bolus q4dx3, mean of four mice
  Vd: 2.94 L/kg
30 mg/kg, Vd (apparent volume of distribution of the central compartment), mouse 28, 30 mg/kg iv-bolus q4dx3
  Vd: 0.528 L/kg
30 mg/kg, Vd (apparent volume of distribution of the central compartment), mouse 59, 30 mg/kg iv-bolus q4dx3
  Vd: 0.373 L/kg
30 mg/kg, Vd (apparent volume of distribution of the central compartment), mouse 64, 30 mg/kg iv-bolus q4dx3
  Vd: 0.745 L/kg
30 mg/kg, Vd (apparent volume of distribution of the central compartment), mouse 88, 30 mg/kg iv-bolus q4dx3
  Vd: 0.578 L/kg
30 mg/kg, Vd, mean, dose 30 mg/kg iv-bolus q4dx3, mean of four mice
  Vd: 0.556 L/kg
40 mg/kg, Vd (apparent volume of distribution of the central compartment), mouse 26, 40 mg/kg iv-bolus q4dx3
  Vd: 5.07 L/kg
40 mg/kg, Vd (apparent volume of distribution of the central compartment), mouse 78, 40 mg/kg iv-bolus q4dx3
  Vd: 1.87 L/kg
40 mg/kg, Vd (apparent volume of distribution of the central compartment), mouse 80, 40 mg/kg iv-bolus q4dx3
  Vd: 0.234 L/kg
40 mg/kg, Vd (apparent volume of distribution of the central compartment), mouse 81, 40 mg/kg iv-bolus q4dx3
  Vd: 0.502 L/kg
40 mg/kg, Vd, mean, dose 40 mg/kg iv-bolus q4dx3, mean of four mice
  Vd: 1.92 L/kg
[4]
  K10 (constant rate of the elimination process): 25.15 day⁻¹
  K12 (interchange constant rate): 15.64 day⁻¹
  K21 (interchange constant rate): 5.819 day⁻¹
  A (PK macro-constant): 1975
  Alpha (PK macro-constant): 43.22
  B (PK macro-constant): 128.5
  Beta (PK macro-constant): 3.386
[5]
  K10 (constant rate of the elimination process): 14.22 day⁻¹
  K12 (interchange constant rate): 1.663 day⁻¹
  K21 (interchange constant rate): 3.76 day⁻¹
  A (PK macro-constant): 7586
  Alpha (PK macro-constant): 16.38
  B (PK macro-constant): 297.8
  Beta (PK macro-constant): 3.265
[6]
  K10 (constant rate of the elimination process): 20.98 day⁻¹
  K12 (interchange constant rate): 1.774 day⁻¹
  K21 (interchange constant rate): 6.257 day⁻¹
  A (PK macro-constant): 54798.379413
  Alpha (PK macro-constant): 23.4
  B (PK macro-constant): 2069
  Beta (PK macro-constant): 5.61
[7]
  K10 (constant rate of the elimination process): 22.85 day⁻¹
  K12 (interchange constant rate): 3.375 day⁻¹
  K21 (interchange constant rate): 5.126 day⁻¹
  A (PK macro-constant): 14365.650820
  Alpha (PK macro-constant): 27.02
  B (PK macro-constant): 518.5
  Beta (PK macro-constant): 4.336
[8]
  K10 (constant rate of the elimination process): 35.24 day⁻¹
  K12 (interchange constant rate): 3.303 day⁻¹
  K21 (interchange constant rate): 3.947 day⁻¹
  A (PK macro-constant): 27526.035314
  Alpha (PK macro-constant): 38.91
  B (PK macro-constant): 293.5
  Beta (PK macro-constant): 3.575
[9]
  K10 (constant rate of the elimination process): 18.65 day⁻¹
  K12 (interchange constant rate): 4.915 day⁻¹
  K21 (interchange constant rate): 0.005329 day⁻¹
  A (PK macro-constant): 80469.811028
  Alpha (PK macro-constant): 23.57
  B (PK macro-constant): 3.797
  Beta (PK macro-constant): 0.004217
[10]
  K10 (constant rate of the elimination process): 17.25 day⁻¹
  K12 (interchange constant rate): 0.5748 day⁻¹
  K21 (interchange constant rate): 3.444 day⁻¹
  A (PK macro-constant): 39912.523664
  Alpha (PK macro-constant): 17.96
  B (PK macro-constant): 374.8
  Beta (PK macro-constant): 3.308
[11]
  K10 (constant rate of the elimination process): 81.15 day⁻¹
  K12 (interchange constant rate): 43.46 day⁻¹
  K21 (interchange constant rate): 34.72 day⁻¹
  A (PK macro-constant): 93311.275568
  Alpha (PK macro-constant): 139.1
  B (PK macro-constant): 12929.572382
  Beta (PK macro-constant): 20.26
[12]
  K10 (constant rate of the elimination process): 18.81 day⁻¹
  K12 (interchange constant rate): 1.318 day⁻¹
  K21 (interchange constant rate): 0.03721 day⁻¹
  A (PK macro-constant): 21408.348297
  Alpha (PK macro-constant): 20.13
  B (PK macro-constant): 2.6
  Beta (PK macro-constant): 0.03477
[13]
  K10 (constant rate of the elimination process): 30.07 day⁻¹
  K12 (interchange constant rate): 35.07 day⁻¹
  K21 (interchange constant rate): 21.07 day⁻¹
  A (PK macro-constant): 139526.742848
  Alpha (PK macro-constant): 78.1
  B (PK macro-constant): 31692.453321
  Beta (PK macro-constant): 8.112
[14]
  K10 (constant rate of the elimination process): 17.11 day⁻¹
  K12 (interchange constant rate): 0.1688 day⁻¹
  K21 (interchange constant rate): 0.1062 day⁻¹
  A (PK macro-constant): 79738.401451
  Alpha (PK macro-constant): 17.28
  B (PK macro-constant): 4.845
  Beta (PK macro-constant): 0.1051
[15]
  K10 (constant rate of the elimination process): 26.34 day⁻¹
  K12 (interchange constant rate): 1.57 day⁻¹
  K21 (interchange constant rate): 4.217 day⁻¹
  A (PK macro-constant): 51349.893679
  Alpha (PK macro-constant): 28.19
  B (PK macro-constant): 591.6
  Beta (PK macro-constant): 3.941
